Where two headings read alike, the source gives them in different places. Each block holds one compound with its values, some of them ahead of it.
Tests used:
ER-BC (Bcoa0725) = details: NADH, anaerobic
ER-MT = target: T1, ER-MT (Neomoorella thermoacetica, UniProt O52935); assay: whole-cell biotransformation, LC-MS; assay type: cell-based; details: 0.7 mM substrate; E. coli expressing ER
T1 sequence (O52935 1-667): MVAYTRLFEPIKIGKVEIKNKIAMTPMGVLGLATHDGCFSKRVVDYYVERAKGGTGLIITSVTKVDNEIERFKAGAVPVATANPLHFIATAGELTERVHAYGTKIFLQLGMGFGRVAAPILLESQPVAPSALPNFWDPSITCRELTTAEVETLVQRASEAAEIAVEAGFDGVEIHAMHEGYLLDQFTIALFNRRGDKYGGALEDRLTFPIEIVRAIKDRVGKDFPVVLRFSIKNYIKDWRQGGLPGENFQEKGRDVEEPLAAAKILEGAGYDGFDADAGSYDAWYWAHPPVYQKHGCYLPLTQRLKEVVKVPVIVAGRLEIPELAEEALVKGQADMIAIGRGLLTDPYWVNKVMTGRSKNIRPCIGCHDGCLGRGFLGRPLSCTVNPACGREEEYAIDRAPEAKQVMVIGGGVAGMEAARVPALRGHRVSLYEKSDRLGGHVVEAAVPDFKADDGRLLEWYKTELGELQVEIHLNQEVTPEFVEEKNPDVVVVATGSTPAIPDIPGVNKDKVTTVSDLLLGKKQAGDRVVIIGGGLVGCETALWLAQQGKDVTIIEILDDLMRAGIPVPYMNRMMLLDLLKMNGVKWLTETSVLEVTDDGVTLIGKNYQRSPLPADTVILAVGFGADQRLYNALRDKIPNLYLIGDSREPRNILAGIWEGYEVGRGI

Km (ER-BC (Bcoa0725); 14% isopropanol, sigmoidal kinetics): 18.9 mM
SMILES: O=C(O)C=CCCC(=O)O (mixture of isomers) [compound 5, 2-hexenedioic acid]

Km (ER-BC (Bcoa0725); substrate inhibition): 0.68 mM
SMILES: O=C(O)/C=C/c1ccccc1 [compound 4, trans-cinnamic acid]

SMILES: O=C(O)/C=C/C=C/C(=O)O [trans,trans-muconic acid]
whole-cell biotransformation, LC-MS (ER-MT): the ER-BC, ER-CA and ER-MT strains hydrogenated both isomers to adipic acid
